Laboratory results: the supplement of paper PMC10627819

What was measured:
B. subtilis 168 [1] = experiment: fitness (endpoint OD595 vs no drug) (fraction); higher = more growth
Outline: (§1)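 Bacterial fitness was scored as optical density at the stationary-phase transition relative to the robust mean of no-drug control wells. Scores are capped at 1. The growth data were OD595 readings every 30 min for 14 h at 37 °C, background-subtracted against the first reading, from 384-well plates inoculated at OD595 0.01 in TSB, LB Lennox or CY.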

B. subtilis 168 [2] = experiment: Bliss interaction score (quartile over a dose matrix) (fitness difference); higher = more antagonism (negative = synergy)
Outline: (§2)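 The Bliss score is observed fitness minus expected fitness, where the expected value is the product of single-drug fitness values inferred from combination data. Fitness is OD595 at entry into stationary phase normalised to the plate's robust no-drug mean and capped at 1. Scores are reported as quartiles spanning technical, biological and donor/recipient replicates.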

S. aureus DSM 20231 = experiment: as above
Outline: as §2

S. aureus Newman = experiment: as above
Outline: as §2

S. pneumoniae D39V [3] = experiment: as above
Outline: as §2

S. pneumoniae D39V [4] = experiment: fitness (endpoint OD595 vs no drug) (fraction); higher = more growth
Outline: as §1
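For Bliss interaction score (quartile over a dose matrix) in this document: first quartile when negative (synergy) and third quartile when positive (antagonism).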
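For fitness (endpoint OD595 vs no drug) in this document: OD595 on entry to stationary phase over no-drug wells; at most 1.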

O=C(O)c1cn(C2CC2)c2cc(N3CCNCC3)c(F)cc2c1=O [Ciprofloxacin] + CO[C@@H]1[C@@H](OC(N)=O)[C@@H](O)[C@H](Oc2ccc3c(O)c(NC(=O)c4ccc(O)c(CC=C(C)C)c4)c(=O)oc3c2C)OC1(C)C [Novobiocin]
fitness, B. subtilis 168 [1]
Conditions | first compound 0.0098 µg/mL | first compound 0.0195 µg/mL | first compound 0.039 µg/mL
partner 0.0125 µg/mL | 0.905 | 0.769 | 0.127
partner 0.025 µg/mL | 0.92 | 0.723 | 0.034
partner 0.05 µg/mL | 0.964 | 0.726 | 0.0487

fitness, B. subtilis 168 [1], one replicate
Conditions | partner 0.1 µg/mL | partner 0.125 µg/mL | partner 0.2 µg/mL | partner 0.25 µg/mL | partner 0.5 µg/mL
first compound 0.0098 µg/mL | 0.926 | 0.84 | 0.915 | 0.697 | 0.15
first compound 0.0195 µg/mL | 0.727 | 0.78 | 0.71 | 0.448 | 0.066
first compound 0.039 µg/mL | 0.127 | 0.0634 | 0.089 | 0.0302 | 0.0454

Conditions | Bliss interaction score
B. subtilis 168 [2] | -0.183
S. aureus DSM 20231 | -0.0685
S. aureus Newman | -0.115
S. pneumoniae D39V [3] | -0.161

COc1cccc2c1C(=O)c1c(O)c3c(c(O)c1C2=O)C[C@@](O)(C(=O)CO)C[C@@H]3O[C@H]1C[C@H](N)[C@H](O)[C@H](C)O1 [Doxorubicin] + Clc1ccc(COC(Cn2ccnc2)c2ccc(Cl)cc2Cl)c(Cl)c1 [Miconazole]
fitness, S. pneumoniae D39V [4]
Conditions | partner 1.073 µg/mL | partner 1.25 µg/mL | partner 2.145 µg/mL | partner 2.5 µg/mL | partner 4.29 µg/mL | partner 5 µg/mL
first compound 0.25 µg/mL | 0.953 | 0.921 | 0.921 | 0.949 | 0.646 | 0.947
first compound 0.5 µg/mL | 0.967 | 0.967 | 0.978 | 0.966 | 0.848 | 0.983
first compound 1 µg/mL | 0.961 | 0.845 | 0.914 | 0.901 | 0.791 | 0.921

Conditions | Bliss interaction score
B. subtilis 168 [2] | 0.0755
S. aureus DSM 20231 | -0.0766
S. aureus Newman | -0.074
S. pneumoniae D39V [3] | 0.0804

O=C(O)c1cn(C2CC2)c2cc(N3CCNCC3)c(F)cc2c1=O [Ciprofloxacin] + Clc1ccc(COC(Cn2ccnc2)c2ccc(Cl)cc2Cl)c(Cl)c1 [Miconazole]
fitness, S. pneumoniae D39V [4]
Conditions | partner 1.073 µg/mL | partner 1.25 µg/mL | partner 2.145 µg/mL | partner 2.5 µg/mL | partner 4.29 µg/mL | partner 5 µg/mL
first compound 0.125 µg/mL | 0.987 | 0.939 | 0.966 | 0.925 | 0.926 | 0.908
first compound 0.25 µg/mL | 0.964 | – | 0.965 | – | 0.864 | –
first compound 0.5 µg/mL | 0.761 | 0.679 | 0.76 | – | 0.821 | 0.646

S. pneumoniae D39V [4], first compound 0.25 µg/mL, one replicate
Conditions | fitness
partner 1.25 µg/mL | 0.821
partner 2.5 µg/mL | 0.697
partner 5 µg/mL | 0.721

Conditions | Bliss interaction score
B. subtilis 168 [2] | -0.0762
S. aureus DSM 20231 | 0.0295
S. aureus Newman | 0.0815
S. pneumoniae D39V [3] | 0.0741

O=C(O)c1cn(C2CC2)c2cc(N3CCNCC3)c(F)cc2c1=O [Ciprofloxacin] + C[C@@H](O)[C@H]1C(=O)N2C(C(=O)O)=C(SCCNC=N)C[C@H]12 [Imipenem]
fitness, S. pneumoniae D39V [4]
Conditions | partner 0.005 µg/mL | partner 0.0065 µg/mL | partner 0.01 µg/mL | partner 0.013 µg/mL | partner 0.02 µg/mL | partner 0.026 µg/mL
first compound 0.125 µg/mL | 0.956 | 0.96 | 0.959 | 0.893 | 0.933 | 0.837
first compound 0.25 µg/mL | – | 0.878 | – | 0.847 | – | 0.774
first compound 0.5 µg/mL | – | 0.531 | – | 0.583 | – | 0.529

S. pneumoniae D39V [4], first compound 0.25 µg/mL, one replicate
Conditions | fitness
partner 0.005 µg/mL | 0.835
partner 0.01 µg/mL | 0.824
partner 0.02 µg/mL | 0.881

Conditions | Bliss interaction score
B. subtilis 168 [2] | -0.149
S. aureus DSM 20231 | 0.0301
S. aureus Newman | 0.016
S. pneumoniae D39V [3] | 0.0446

C[C@H]1c2cccc(O)c2C(=O)C2=C(O)[C@]3(O)C(=O)C(C(N)=O)=C(O)[C@@H](N(C)C)[C@@H]3[C@@H](O)[C@@H]21 [Doxycycline] + CO[C@H]1/C=C/O[C@@]2(C)Oc3c(C)c(O)c4c(O)c(c(/C=N/N5CCN(C)CC5)c(O)c4c3C2=O)NC(=O)/C(C)=C\C=C\[C@H](C)[C@H](O)[C@@H](C)[C@@H](O)[C@@H](C)[C@H](OC(C)=O)[C@@H]1C [Rifampicin]
S. pneumoniae D39V [4], one replicate
Conditions | fitness
first compound 0.003875 µg/mL, partner 0.05 µg/mL | 0.802
first compound 0.003875 µg/mL, partner 0.1 µg/mL | 0.36
first compound 0.003875 µg/mL, partner 0.2 µg/mL | 0.109
first compound 0.00775 µg/mL, partner 0.05 µg/mL | 0.864
first compound 0.00775 µg/mL, partner 0.1 µg/mL | 0.494
first compound 0.00775 µg/mL, partner 0.2 µg/mL | 0.207
first compound 0.0155 µg/mL, partner 0.025 µg/mL | 0.912
first compound 0.031 µg/mL, partner 0.025 µg/mL | 0.927
first compound 0.062 µg/mL, partner 0.025 µg/mL | 0.825

fitness, S. pneumoniae D39V [4]
Conditions | first compound 0.0155 µg/mL | first compound 0.031 µg/mL | first compound 0.062 µg/mL
partner 0.05 µg/mL | 0.863 | 0.861 | –
partner 0.1 µg/mL | – | – | 0.307
partner 0.2 µg/mL | 0.199 | 0.113 | 0.0818

Conditions | Bliss interaction score
B. subtilis 168 [2] | -0.253
S. aureus DSM 20231 | -0.0196
S. aureus Newman | -0.0119
S. pneumoniae D39V [3] | -0.0813

CO/N=C(\C(=O)N[C@@H]1C(=O)N2C(C(=O)O)=C(COC(C)=O)CS[C@H]12)c1csc(N)n1 [Cefotaxime] + CO[C@@H]1[C@@H](OC(N)=O)[C@@H](O)[C@H](Oc2ccc3c(O)c(NC(=O)c4ccc(O)c(CC=C(C)C)c4)c(=O)oc3c2C)OC1(C)C [Novobiocin]
fitness, B. subtilis 168 [1], one replicate
Conditions | first compound 0.00775 µg/mL | first compound 0.0155 µg/mL | first compound 0.031 µg/mL | first compound 0.0625 µg/mL | first compound 0.125 µg/mL | first compound 0.25 µg/mL
partner 0.05 µg/mL | 0.908 | 0.735 | 0.565 | – | – | –
partner 0.1 µg/mL | 0.955 | 0.715 | 0.563 | – | – | –
partner 0.125 µg/mL | – | – | – | 0.291 | 0.169 | 0.117
partner 0.2 µg/mL | 0.945 | 0.676 | 0.51 | – | – | –
partner 0.25 µg/mL | – | – | – | 0.112 | 0.0673 | 0.0477
partner 0.5 µg/mL | – | – | – | 0.0592 | 0.0517 | 0.0477

fitness, B. subtilis 168 [1]
Conditions | first compound 0.5 µg/mL | first compound 1 µg/mL | first compound 2 µg/mL
partner 0.0125 µg/mL | 0.27 | 0.122 | 0.127
partner 0.025 µg/mL | 0.275 | 0.135 | 0.131
partner 0.05 µg/mL | 0.276 | 0.153 | 0.142

Conditions | Bliss interaction score
B. subtilis 168 [2] | 0.097
S. aureus DSM 20231 | 0.0739
S. aureus Newman | 0.0646
S. pneumoniae D39V [3] | -0.126
